Assay [1] deals with TGF-β-stimulated SMAD3 phosphorylation in BEAS-2B cells. Kind of assay: Cellular ALK5 potency assay, inhibition of TGF-β stimulated pSMAD3 formation in BEAS-2B cells. Conditions: Homo sapiens, pSMAD3, TGF-β 10 ng/mL, read-out: BEAS2B pIC50 (converted). Format: cell-based. In outline: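 Cells were seeded overnight, rinsed into HEPES/BSA-supplemented HBSS, and dosed with serially diluted compound for 1 h at 37 °C, 5% CO2. TGF-β stimulation (10 ng/mL final) followed for 30 min, then lysis and AlphaLISA pSMAD3 measurement; potency reported as pIC50.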

Assay [2] has as its target T1, recombinant human ALK5 (TGF-βR1) protein (Homo sapiens, UniProt P36897).
T1 construct: purchased Life Technologies PR9075A
T1 sequence (P36897 34-503): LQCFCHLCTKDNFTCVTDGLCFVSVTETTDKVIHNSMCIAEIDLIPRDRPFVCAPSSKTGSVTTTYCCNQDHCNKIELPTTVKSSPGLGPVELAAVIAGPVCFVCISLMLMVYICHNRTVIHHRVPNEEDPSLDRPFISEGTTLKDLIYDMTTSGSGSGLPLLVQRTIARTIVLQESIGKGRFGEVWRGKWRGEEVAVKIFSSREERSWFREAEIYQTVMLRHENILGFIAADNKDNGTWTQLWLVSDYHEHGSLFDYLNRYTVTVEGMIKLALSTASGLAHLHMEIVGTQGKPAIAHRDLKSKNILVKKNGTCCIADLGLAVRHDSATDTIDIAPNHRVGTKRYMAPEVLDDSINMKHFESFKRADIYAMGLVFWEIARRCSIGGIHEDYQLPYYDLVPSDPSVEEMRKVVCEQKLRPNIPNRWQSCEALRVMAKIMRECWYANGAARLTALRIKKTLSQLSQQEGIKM
As to the kind of experiment: Biochemical ALK5 (TGF-βR1) assay to measure pKi (LANCE Ultra ULight kinase assay). Conditions: apparent pKi, converted from pIC50 by Cheng-Prusoff. In outline:
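Cmpd + enzyme, 60 min RT; ATP from 125 μM (5×) stock, 60 min 37 °C; stop 12 mM EDTA/Eu anti-pThr1342 Topo2α Ab (pH 7.0 buffer); TR-FRET 665 nm. DMSO = max, SD-208 = min signal. 4-PL pIC50 → pKi (Cheng-Prusoff).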
In general terms: TR-FRET usually uses a lanthanide donor and a delayed reading to cut background.

Consider `Cc1cccc(-c2nc(Nc3ccnc(Nc4ccc(NC(=O)C5CCCNC5)cc4)n3)c3cccn3n2)n1` (stereo not shown) [Compound 1032, N-[4-[[4-[[2-(6-methyl-2-pyridyl)pyrrolo[2,1-f][1,2,4]triazin-4-yl]amino]pyrimidin-2-yl]amino]phenyl]piperidine-3-carboxamide], for which the IC50 in assay [1] was 25.1 to 158 nM. The Ki in assay [2] was 0.0398 to 0.316 nM.
On the same counts, the results for `Cc1cccc(-c2nc(Nc3ccnc(Nc4ccc(C(=O)N5CCC6(CC5)CNC6)cc4)n3)c3cccn3n2)n1` [Compound 1033, 2,7-diazaspiro[3.5]nonan-7-yl-[4-[[4-[[2-(6-methyl-2-pyridyl)pyrrolo[2,1-f][1,2,4]triazin-4-yl]amino]pyrimidin-2-yl]amino]phenyl]methanone] are 25.1 to 158 nM and 0.0398 to 0.316 nM.
The corresponding values for `Cc1cccc(-c2nc(Nc3ccnc(Nc4ccc(C(=O)NC5CNC5)cc4)n3)c3cccn3n2)n1` [Compound 1034, N-(azetidin-3-yl)-4-[[4-[[2-(6-methyl-2-pyridyl)pyrrolo[2,1-f][1,2,4]triazin-4-yl]amino]pyrimidin-2-yl]amino]benzamide] are 25.1 to 158 nM and 0.0398 to 0.316 nM.
The corresponding values for `Cc1cccc(-c2nc(Nc3ccnc(Nc4ccc(C(=O)NCC5CNC5)cc4)n3)c3cccn3n2)n1` [Compound 1035, N-(azetidin-3-ylmethyl)-4-[[4-[[2-(6-methyl-2-pyridyl)pyrrolo[2,1-f][1,2,4]triazin-4-yl]amino]pyrimidin-2-yl]amino]benzamide] are 25.1 to 158 nM and 0.0398 to 0.316 nM.
Turning to `Cc1cccc(-c2nc(Nc3ccnc(Nc4ccc(C(=O)NC5CCNC5)cc4)n3)c3cccn3n2)n1` (stereo not shown) [Compound 1036, 4-[[4-[[2-(6-methyl-2-pyridyl)pyrrolo[2,1-f][1,2,4]triazin-4-yl]amino]pyrimidin-2-yl]amino]-N-pyrrolidin-3-yl-benzamide], the IC50 in assay [1] is 25.1 to 158 nM. The Ki in assay [2] was 0.0398 to 0.316 nM.
On the same counts, the results for `Cc1cccc(-c2nc(Nc3ccnc(Nc4ccc(C(=O)NC5CCNCC5)cc4)n3)c3cccn3n2)n1` [Compound 1037, 4-[[4-[[2-(6-methyl-2-pyridyl)pyrrolo[2,1-f][1,2,4]triazin-4-yl]amino]pyrimidin-2-yl]amino]-N-(4-piperidyl)benzamide] are 25.1 to 158 nM and 0.0398 to 0.316 nM.
On the same counts, the results for `Cc1cccc(-c2nc(Nc3ccnc(Nc4ccc(C(=O)N5CCNCC5)cc4)n3)c3cccn3n2)n1` [Compound 1038, [4-[[4-[[2-(6-methyl-2-pyridyl)pyrrolo[2,1-f][1,2,4]triazin-4-yl]amino]pyrimidin-2-yl]amino]phenyl]-piperazin-1-yl-methanone] are 25.1 to 158 nM and 0.0398 to 0.316 nM.
The corresponding values for `Cc1cccc(-c2nc(Nc3ccnc(Nc4ccc(C(=O)OCC5CNC5)cc4)n3)c3cccn3n2)n1` [Compound 1039, azetidin-3-ylmethyl 4-[[4-[[2-(6-methyl-2-pyridyl)pyrrolo[2,1-f][1,2,4]triazin-4-yl]amino]pyrimidin-2-yl]amino]benzoate] are 25.1 to 158 nM and 0.0398 to 0.316 nM.
On to `Cc1cccc(-c2nc(Nc3ccnc(Nc4ccc(NC5CNC5)cc4)n3)c3cccn3n2)n1` [Compound 1040, N2-[4-(azetidin-3-ylamino)phenyl]-N4-[2-(6-methyl-2-pyridyl)pyrrolo[2,1-f][1,2,4]triazin-4-yl]pyrimidine-2,4-diamine], for which the IC50 in assay [1] was 25.1 to 158 nM. In assay [2], the Ki was 0.0398 to 0.316 nM.
The corresponding values for `Cc1cccc(-c2nc(Nc3ccnc(Nc4ccc(NC5CCNC5)cc4)n3)c3cccn3n2)n1` (stereo not shown) [Compound 1041, N4-[2-(6-methyl-2-pyridyl)pyrrolo[2,1-f][1,2,4]triazin-4-yl]-N2-[4-(pyrrolidin-3-ylamino)phenyl]pyrimidine-2,4-diamine] are 25.1 to 158 nM and 0.0398 to 0.316 nM.
The corresponding values for `Cc1cccc(-c2nc(Nc3ccnc(Nc4ccc(NC5CCNCC5)cc4)n3)c3cccn3n2)n1` [Compound 1042, N4-[2-(6-methyl-2-pyridyl)pyrrolo[2,1-f][1,2,4]triazin-4-yl]-N2-[4-(4-piperidylamino)phenyl] pyrimidine-2,4-diamine] are 25.1 to 158 nM and 0.0398 to 0.316 nM.

The values are drawn from patent US20230399312A1, “SUBSTITUTED PYRIMIDINES AND METHODS OF USE” (THERAVANCE BIOPHARMA R&D IP, LLC, priority 2020, published 2023).
